Consider 34 compounds from ChEMBL document CHEMBL1949644, “Synthesis and SAR optimization of quinazolin-4(3H)-ones as poly(ADP-ribose)polymerase-1 inhibitors” (Eur J Med Chem, 2012).

Test [1] addresses T1, Poly [ADP-ribose] polymerase 1 (Homo sapiens, UniProt P09874). Kind of test: Inhibition of PARP1 at 25 uM using TACS-Sapphire substrate for 30 mins by colorimetry.
The target in test [2] is T1, Poly [ADP-ribose] polymerase 1. Kind of test: Inhibition of PARP1 using TACS-Sapphire substrate for 30 mins by colorimetry.
For test [3] the target is unchanged. Nature of the test: Ratio of quinazoline-4(3H)-one IC50 to compound IC50 for PARP1.
Test [4] deals with MEF. Kind of test: Antiproliferative activity against wild type MEF cells assessed as cell viability after 72 hrs by MTT assay. It counts as cell-based. To be noted: Mus musculus. A general note: Formazan colour is commonly taken as a measure of viable cells.
Test [5] concerns MEF. Nature of the test: Ratio of IC50 for wild type MEF cells to MEF cells harboring Brca1 deletion mutant at exon 11. Format: functional, Mus musculus.
The subject of test [6] is MEF. Kind of test: Antiproliferative activity against MEF cells harboring Brca1 deletion mutant at exon 11 assessed as cell viability after 72 hrs by MTT assay. Format: functional, cell-based. To be noted: Mus musculus.

T1 sequence (P09874 whole entry): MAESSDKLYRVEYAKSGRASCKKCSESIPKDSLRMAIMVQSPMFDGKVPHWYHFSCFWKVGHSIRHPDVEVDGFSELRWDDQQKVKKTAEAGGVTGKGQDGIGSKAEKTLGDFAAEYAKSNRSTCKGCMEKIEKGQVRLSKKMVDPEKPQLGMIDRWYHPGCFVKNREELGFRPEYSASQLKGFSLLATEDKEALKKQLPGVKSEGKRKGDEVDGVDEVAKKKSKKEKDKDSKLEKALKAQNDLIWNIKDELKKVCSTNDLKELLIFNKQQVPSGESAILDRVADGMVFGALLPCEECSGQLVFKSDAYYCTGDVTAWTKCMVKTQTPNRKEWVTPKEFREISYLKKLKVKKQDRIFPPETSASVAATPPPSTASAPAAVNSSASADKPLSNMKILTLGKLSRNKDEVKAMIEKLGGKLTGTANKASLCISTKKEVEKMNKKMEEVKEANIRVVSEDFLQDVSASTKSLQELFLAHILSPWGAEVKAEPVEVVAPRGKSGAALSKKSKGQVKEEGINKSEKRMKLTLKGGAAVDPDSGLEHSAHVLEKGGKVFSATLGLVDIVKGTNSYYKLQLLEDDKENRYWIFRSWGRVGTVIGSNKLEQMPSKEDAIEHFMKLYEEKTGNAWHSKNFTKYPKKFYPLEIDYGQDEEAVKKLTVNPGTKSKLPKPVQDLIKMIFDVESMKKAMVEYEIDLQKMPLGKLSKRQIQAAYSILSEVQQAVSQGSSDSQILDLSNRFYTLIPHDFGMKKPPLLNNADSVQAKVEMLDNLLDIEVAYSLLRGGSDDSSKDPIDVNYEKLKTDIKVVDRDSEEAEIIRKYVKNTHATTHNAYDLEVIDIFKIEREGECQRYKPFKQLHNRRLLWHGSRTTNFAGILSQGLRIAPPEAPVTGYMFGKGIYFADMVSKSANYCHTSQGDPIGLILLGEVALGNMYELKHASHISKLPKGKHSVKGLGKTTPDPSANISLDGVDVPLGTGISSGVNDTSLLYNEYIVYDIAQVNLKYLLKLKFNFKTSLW

What is called inhibition is the share of the control response that was lost under treatment. Low readings indicate a response near the control, high ones a response far below the control. With `O=[N+]([O-])c1cccc2c(O)ncnc12`, the inhibition in test [1] was < 40%.

`O=c1[nH]cnc2ccc(I)cc12` came in with an inhibition in test [1] of 40%.

Turning to `Oc1ncnc2cc(Cl)ccc12`, in test [1], the inhibition is < 40%. As usually defined, the IC50 is the concentration at which inhibition is half-maximal. Regarding `O=c1[nH]cnc2ccc(F)cc12`, in test [2], the IC50 was determined as 9.01 µM.

The compound `O=c1[nH]cnc2cccc(F)c12` returned an IC50 in test [2] of 7.04 µM.

In test [1], `O=c1[nH]cnc2ccc(O)cc12` returned an inhibition of 40%.

For `Cc1ccc2c(=O)[nH]cnc2c1`, in test [1], the inhibition was 40%. For `O=c1[nH]cnc2cc([N+](=O)[O-])ccc12`, the inhibition in test [1] is < 40%. Still for that read-out and setting: the same measure for `O=c1[nH]cnc2cc(F)ccc12`: < 40%; for `Nc1ccc2nc[nH]c(=O)c2c1`: 40%.

Regarding `Cc1cc(C)c2nc[nH]c(=O)c2c1`, the IC50 in test [2] turned out to be 1.39 µM. For the same compound, the Ratio IC50 in test [3] was determined as 4. `Cc1nc2cccc(Cl)c2c(=O)[nH]1` showed an IC50 in test [2] of 1.18 µM. Regarding `Cc1nc2c(N)cccc2c(=O)[nH]1`, the half-maximal inhibitory concentration (IC50) in the test on MEF [4] was > 500 µM; in test [2] it was 0.4 µM; in the test on MEF [6], 49 µM. Moreover, the “Ratio IC50” value in the test with MEF [5] is >10. Consider `Cc1nc(O)c2cccc(C)c2n1`, for which the half-inhibitory concentration (IC50) in the test with MEF [4] came out at 177 µM; in test [2] it was 0.49 µM; in the test with MEF [6] it was 15.1 µM. Besides, the “Ratio IC50” value in the test with MEF [5] was 12. With `O=c1[nH]cnc2cccc(Cl)c12`, the half-maximal inhibitory concentration (IC50) in test [2] stood at 3.19 µM. Same read-out and setting: the figure for `O=c1[nH]cnc2c(F)cccc12` is 18.8 µM. As to `COc1cc2nc[nH]c(=O)c2cc1OC`, the inhibition in test [1] is < 40%. For the compound `O=[N+]([O-])c1ccc2ncnc(O)c2c1`, the inhibition in test [1] is 40%. As for `Cc1cc(C)c2nc(C)[nH]c(=O)c2c1`, the IC50 in test [2] amounted to 13.2 µM. Consider `Cc1cccc2nc[nH]c(=O)c12`, for which the inhibition in test [1] amounted to 40%.

`Cc1ccc2nc[nH]c(=O)c2c1` returned an IC50 in test [2] of 25 µM. For the same compound, in test [1], the inhibition was determined as 40%.

As for `O=c1[nH]cnc2ccc(Cl)cc12`, in test [2], the IC50 was 11 µM. Regarding `Nc1ccc2c(=O)[nH]cnc2c1`, in test [1], the inhibition is < 40%. As to `O=c1[nH]cnc2cc(F)c(F)cc12`, in test [1], the inhibition was < 40%.

As for `Cc1nc2cccc(F)c2c(=O)[nH]1`, in test [2], half-maximal inhibition (IC50) was put at 1.97 µM. Take `CN(C)CC(=O)Nc1ccc2[nH]c(=O)c3ccccc3c2c1` [PJ34]: the IC50 in the test with MEF [4] came to 19.8 µM; in the test with MEF [6], 13.2 µM. In test [2], `Cc1nc2cccc(C)c2c(=O)[nH]1` displayed an IC50 of 5.31 µM. With `O=c1[nH]cnc2c(C(F)(F)F)cccc12`, the inhibition in test [1] was found to be 40%. Turning to `Nc1cccc2c(=O)[nH]cnc12`, the values for the IC50 (in the test on MEF [4]; in test [2]; with MEF [6]) were > 600 µM, 0.76 µM and > 600 µM, respectively.

Turning to `Cc1cccc2c(=O)[nH]cnc12`, 1.32 µM corresponded to half-maximal inhibition in test [2] (IC50). The Ratio IC50 in test [3] came to 4.

On to `O=c1[nH]cnc2cc(C(F)(F)F)ccc12`, for which, in test [2], half-maximal inhibition (IC50) required 7.5 µM. For the compound `O=c1[nH]cnc2ccc([N+](=O)[O-])cc12`, the half-inhibitory concentration (IC50) in test [2] was found to be 25 µM.

The compound `Cc1nc2c(Cl)cccc2c(=O)[nH]1` had a 50% inhibitory concentration (IC50) in test [2] of 2.65 µM. Regarding `O=c1[nH]cnc2c(Cl)cccc12`, the IC50 in test [2] was determined as 5.65 µM.
